Measurements published in PubChem BioAssay AID743070 (Broad Institute, 2013).
The source made the active and inactive calls. How the calls were made is not given here.

Experiment: growth inhibition of wild-type Mtb, BioA inhibitor project, biotin-free medium, plate reader, dry powder (AID 743070)
Details: M. tuberculosis wild type growth; for IC90: measured here: Mtb growth IC90

Row | SMILES | IC50 | IC90
1 | CC(=O)c1ccc(N2CCN(C(=O)c3ccc4c(c3)OCO4)CC2)cc1 | 5 µM | 26.3 µM
2 | O=C(O)CC/C(=C\c1ccccc1[N+](=O)[O-])c1nc2ccccc2s1 | 50 µM | > 50 µM
3 | Cc1ccccc1/C=C(\CCC(=O)O)c1nc2ccccc2s1 | 8.3 µM | 44.1 µM
4 | COc1cccc(NC(=O)CCC2CCN(C(=O)c3ccc(C(C)=O)s3)CC2)c1 | 10.7 µM | > 50 µM
5 | O=C(O)CC/C(=C\c1ccc([N+](=O)[O-])cc1)c1nc2ccccc2s1 | 8.9 µM | 34.4 µM
6 | CC(=O)c1ccc(N2CCN(C(=O)c3cccc(F)c3)CC2)cc1 | > 50 µM (inactive) | > 50 µM
7 | O=C(Nc1ccc(Cl)cc1)c1cc2nc(C3CC3)cc(C(F)(F)F)n2n1 | 50 µM | > 50 µM
8 | O=C(Nc1cccc(Cl)c1)N1CCN(c2ccccc2)CC1 | 5 µM | > 50 µM
9 | CCN(CC)c1ccc2cc(C(=O)c3cccs3)c(=O)oc2c1 | 3.8 µM | 20.7 µM
10 | COc1cc(/C=C/C(=O)Nc2cccnc2)cc(OC)c1OC | 13.7 µM | > 50 µM
11 | O=C(Nc1cccnc1)N1CCN(c2ccccc2)CC1 | > 50 µM (inactive) | > 50 µM
12 | COc1cccc(C(=O)N2CCN(c3ccc(C(C)=O)cc3)CC2)c1 | 50 µM | > 50 µM
13 | CC(=O)c1ccc(N2CCN(Cc3ccc4c(c3)OCO4)CC2)cc1 | 31.2 µM | > 50 µM
14 | CC(=O)c1ccc(N2CCN(C(=O)c3ccc(Br)cc3)CC2)c(F)c1 | 10.3 µM | > 50 µM
15 | O=C(c1ccc2c(c1)OCO2)N1CCN(c2ccc(F)cc2)CC1 | 22 µM | > 50 µM
16 | Cc1ccc(-c2cc(C(F)(F)F)n3nc(C(=O)Nc4cccnc4)cc3n2)cc1 | > 50 µM (inactive) | > 50 µM
17 | Cc1ccc(/C=C(\CCCC(=O)O)c2nc3ccccc3s2)cc1[N+](=O)[O-] | 8.4 µM | > 63.3 µM
18 | COc1ccc(N2CCN(C(=O)c3ccc4c(c3)OCO4)CC2)cc1 | 9.7 µM | > 50 µM
19 | O=C(Nc1ccc2snnc2c1)N1CCN(c2ccccc2)CC1 | 3.2 µM | 17.9 µM
20 | CC(=O)c1ccc(N2CCN(C(=O)c3ccc(Cl)cc3)CC2)cc1 | > 50 µM (inactive) | > 50 µM

Row | SMILES | IC50 | IC90
21 | CC(=O)c1ccc(N2CCN(C(=O)c3ccccc3)CC2)cc1 | > 50 µM (inactive) | > 50 µM
22 | O=C(Nc1ccc2snnc2c1)N1CCOCC1 | > 50 µM (inactive) | > 50 µM
23 | Cc1cc(C)n2nc(C(=O)Nc3cccnc3)nc2n1 | > 50 µM (inactive) | > 50 µM
24 | O=C(Nc1ccc(F)cc1)N1CCN(c2ccccc2)CC1 | 14.1 µM | > 50 µM
25 | CCOC(=O)N1CCN(C(=O)Nc2ccc3snnc3c2)CC1 | 14.6 µM | > 50 µM
26 | Cc1cccc(/C=C(\CCC(=O)O)c2nc3ccccc3s2)c1 | 3.1 µM | 11 µM
27 | O=C(Nc1cccc(F)c1)N1CCN(c2ccccc2)CC1 | 8.2 µM | > 50 µM
28 | CCc1ccc(N2CCN(C(=O)c3ccc4c(c3)OCO4)CC2)cc1 | 9.6 µM | > 50 µM
29 | O=C(c1ccc2c(c1)OCO2)N1CCN(c2ccccc2)CC1 | 23.2 µM | > 50 µM
30 | O=C(Nc1cccnc1)c1cnn2c(C(F)(F)F)cc(-c3ccccc3)nc12 | > 50 µM (inactive) | > 50 µM
31 | COc1ccc(C(=O)N2CCN(c3ccc(C(C)=O)cc3)CC2)cc1 | > 50 µM (inactive) | > 50 µM
32 | COc1cccc(NC(=O)N2CCN(c3ccccc3)CC2)c1 | 50 µM | > 50 µM
33 | COC(=O)c1c(C(=O)OC)c(-c2cccc(F)c2)n2c1CS(=O)C2 (stereo not given) | 15.9 µM | > 50 µM
34 | CC(=O)c1ccc(N2CCN(C(=O)c3ccc4ncsc4c3)CC2)cc1 | 22.2 µM | > 50 µM
35 | Cc1ccc(/C=C(\CC(=O)O)c2nc3ccccc3s2)cc1[N+](=O)[O-] | 6.8 µM | > 50 µM
36 | Cc1cc(C)n2nc(C(=O)Nc3cccnc3)cc2n1 | 21.8 µM | > 50 µM
37 | O=C(Nc1ccccc1)N1CCN(c2ccccc2)CC1 | 6.9 µM | > 50 µM
38 | Cc1ccc(/C=C(\CCC(=O)O)c2nc3ccccc3s2)cc1[N+](=O)[O-] | 1.1 µM | 2.5 µM
39 | O=C(COc1ccc2ccc(=O)oc2c1)N1CCN(c2ccc(F)cc2)CC1 | 50 µM | > 50 µM
40 | Cc1ccc(/C=C(\CCC(=O)O)c2nc3ccccc3s2)cc1 | 2 µM | 4.8 µM

Row | SMILES | IC50 | IC90
41 | O=C(Nc1cccnc1)c1cnn2c(C(F)F)cc(C3CC3)nc12 | > 50 µM (inactive) | > 50 µM
42 | CC(C)(C)c1ccc(C(=O)N2CCN(c3ccc4c(c3)OCO4)CC2)cc1 | 14.9 µM | > 50 µM
43 | CC(=O)c1ccc(N2CCN(C(=O)c3ccc(F)cc3)CC2)cc1 | 50 µM | > 50 µM
44 | O=C(Nc1cccnc1)c1cc2nc(-c3cccs3)cc(C(F)(F)F)n2n1 | > 50 µM (inactive) | > 50 µM
45 | O=C(Nc1ccc2snnc2c1)N1CCCCC1 | 50 µM | > 50 µM
46 | COc1ccc(-c2cc(C(F)(F)F)n3nc(C(=O)Nc4cccnc4)cc3n2)cc1 | 2.7 µM | > 50 µM
47 | O=C(c1ccc2c(c1)OCO2)N1CCN(c2ccc(Cl)cc2)CC1 | 11.2 µM | 49.2 µM
48 | CC(=O)c1ccc(N2CCN(C(=O)c3cccc(Cl)c3)CC2)cc1 | 7.5 µM | 27.5 µM
49 | O=C(c1ccc2c(c1)OCO2)N1CCN(Cc2ccccc2)CC1 | > 50 µM (inactive) | > 50 µM
50 | CC(=O)c1ccc(N2CCN(C(=O)c3cccnc3)CC2)cc1 | > 50 µM (inactive) | > 50 µM
51 | O=C(Nc1ccc2[nH]ccc2c1)N1CCN(c2ccccc2)CC1 | 7 µM | > 50 µM
52 | COc1ccc(NC(=O)N2CCN(c3ccccc3)CC2)cc1 | 50 µM | > 50 µM
53 | CC(=O)c1ccc(N2CCN(C(=O)c3ccc4c(c3)OCCO4)CC2)cc1 | > 50 µM (inactive) | > 50 µM
54 | CCc1ccc(C(=O)N2CCN(Cc3ccc4c(c3)OCO4)CC2)cc1 | 8.5 µM | > 50 µM
55 | O=C(Nc1ccncc1)c1cc2nc(C3CC3)cc(C(F)F)n2n1 | 50 µM | > 50 µM
56 | CC(=O)c1ccc(N2CCN(C(=O)c3ccc(C)cc3)CC2)cc1 | > 50 µM (inactive) | > 50 µM
57 | Cc1nc2cc(NC(=O)N3CCN(c4ccccc4)CC3)ccc2o1 | 50 µM | > 50 µM
58 | O=C(Nc1ccc(Cl)c(-c2nc3ccccc3[nH]2)c1)c1cccnc1 | 7.4 µM | 46 µM
59 | Cc1ccc(NC(=O)N2CCN(c3ccccc3)CC2)cc1 | 10.3 µM | > 50 µM
60 | Cc1nc2ccc(NC(=O)N3CCN(c4ccccc4)CC3)cc2s1 | 2.1 µM | 6.8 µM
